{"source": "ChEMBL document CHEMBL5321246", "about": "“Aurones: A Promising Scaffold to Inhibit SARS-CoV-2 Replication” (J Nat Prod, 2023)"}
{"system": "SARS-CoV-2", "assay": "Antiviral activity against SARS-CoV-2 B.1 lineage isolate infected in human Calu-3 cells assessed as inhibition of viral replication at 10 uM infected with cells for 1 hr followed by compound addition and measured 24 hrs post infection by crystal violet staining based PFU assay relative to control", "assay_type": "functional", "details": "Severe acute respiratory syndrome coronavirus 2, B.1, Calu-3", "units": {"inhibition at 10 µM": "%"}}
{"smiles": "COc1ccc(/C=C2\\Oc3cc(O)cc(O)c3C2=O)cc1", "inhibition at 10 µM": 68.4}
{"smiles": "O=C1/C(=C/c2ccc(Cl)cc2)Oc2ccccc21", "inhibition at 10 µM": 68.8}
{"smiles": "COCOc1cc(OCOC)c2c(c1)O/C(=C\\c1ccc(OC)cc1)C2=O", "inhibition at 10 µM": 95.2}
{"smiles": "COCOc1ccc2c(c1OCOC)O/C(=C\\c1ccc(OC)cc1)C2=O", "inhibition at 10 µM": 58.2}
{"smiles": "COc1ccc(/C=C2\\Oc3ccccc3C2=O)cc1", "note": "[4'-METHOXY-AURONE]", "inhibition at 10 µM": 66.9}
{"smiles": "O=C1/C(=C/c2ccccc2)Oc2ccccc21", "note": "[(Z)-AURONE]", "inhibition at 10 µM": 81.2}
{"smiles": "COc1cccc2c1C(=O)/C(=C/c1ccccc1)O2", "inhibition at 10 µM": 90.9}
{"system": "SARS-CoV-2", "assay": "Antiviral activity against SARS-CoV-2 B.1 lineage isolate infected in human Calu-3 cells assessed as inhibition of viral replication at 1 uM infected with cells for 1 hr followed by compound addition and measured 24 hrs post infection by crystal violet staining based PFU assay relative to control", "assay_type": "functional", "details": "Severe acute respiratory syndrome coronavirus 2, B.1, Calu-3", "units": {"inhibition at 1 µM": "%"}}
{"smiles": "COCOc1cc(OCOC)c2c(c1)O/C(=C\\c1ccc(OC)cc1)C2=O", "inhibition at 1 µM": "< 1"}
{"smiles": "COCOc1ccc2c(c1OCOC)O/C(=C\\c1ccc(OC)cc1)C2=O", "inhibition at 1 µM": "< 1"}
{"smiles": "COc1ccc(/C=C2\\Oc3ccccc3C2=O)cc1", "note": "[4'-METHOXY-AURONE]", "inhibition at 1 µM": 29.2}
{"smiles": "O=C1/C(=C/c2ccccc2)Oc2ccccc21", "note": "[(Z)-AURONE]", "inhibition at 1 µM": "< 1"}
{"smiles": "COc1cccc2c1C(=O)/C(=C/c1ccccc1)O2", "inhibition at 1 µM": "< 1"}
{"system": "not listed separately", "assay": "Cytotoxicity against human Calu-3 cells assessed as cell viability at 250 uM incubated for 72 hrs by methylene blue assay relative to control", "assay_type": "toxicity, cell-based", "details": "read-out: Activity", "units": {"viability at 72 h, 250 µM": "%"}}
{"smiles": "COc1ccc(/C=C2\\Oc3cc(O)cc(O)c3C2=O)cc1", "viability at 72 h, 250 µM": "≥ 80"}
{"smiles": "O=C1/C(=C/c2ccc(Cl)cc2)Oc2ccccc21", "viability at 72 h, 250 µM": "≥ 80"}
{"smiles": "COCOc1cc(OCOC)c2c(c1)O/C(=C\\c1ccc(OC)cc1)C2=O", "viability at 72 h, 250 µM": "≥ 80"}
{"smiles": "COCOc1ccc2c(c1OCOC)O/C(=C\\c1ccc(OC)cc1)C2=O", "viability at 72 h, 250 µM": "≥ 80"}
{"smiles": "COc1ccc(/C=C2\\Oc3ccccc3C2=O)cc1", "note": "[4'-METHOXY-AURONE]", "viability at 72 h, 250 µM": "≥ 80"}
{"smiles": "O=C1/C(=C/c2ccccc2)Oc2ccccc21", "note": "[(Z)-AURONE]", "viability at 72 h, 250 µM": "≥ 80"}
{"smiles": "COc1cccc2c1C(=O)/C(=C/c1ccccc1)O2", "viability at 72 h, 250 µM": "≥ 80"}
{"system": "SARS-CoV-2", "assay": "Antiviral activity against SARS-CoV-2 infected in human Calu-3 cells", "assay_type": "functional, organism-based", "details": "Severe acute respiratory syndrome coronavirus 2, Calu-3", "units": {"EC50": "nM"}}
{"smiles": "O=c1cc(-c2ccccc2)oc2cc(O)c(O)c(O)c12", "note": "[BAICALEIN]", "EC50": 1200}
{"system": "SARS-CoV-2", "assay": "Antiviral activity against SARS-CoV-2 B.1 lineage infected in human Calu-3 cells assessed as inhibition of viral replication", "assay_type": "functional, organism-based", "details": "Severe acute respiratory syndrome coronavirus 2, B.1, Calu-3", "units": {"EC50": "nM"}}
{"smiles": "O=c1c(O)c(-c2ccc(O)c(O)c2)oc2cc(O)cc(O)c12", "note": "[QUERCETIN]", "EC50": 2400}
{"smiles": "O=c1c(O)c(-c2ccc(O)cc2)oc2cc(O)cc(O)c12", "note": "[KAEMPFEROL]", "EC50": 3000}
{"smiles": "O=c1c(O)c(-c2cc(O)c(O)c(O)c2)oc2cc(O)cc(O)c12", "note": "[MYRICETIN]", "EC50": 900}
{"smiles": "O=c1cc(-c2ccc(O)cc2)oc2cc(O)cc(O)c12", "note": "[APIGENIN]", "EC50": 5100}
{"system": "SARS-CoV-2", "assay": "Antiviral activity against SARS-CoV-2 infected in human Calu-3 cells assessed as inhibition of viral replication incubated for 48 hrs by PFU assay", "assay_type": "functional, organism-based", "details": "Severe acute respiratory syndrome coronavirus 2, Calu-3, 48 h", "units": {"EC50": "nM"}}
{"smiles": "COc1cc(O)c2c(=O)c(OC)c(-c3ccc(O)cc3)oc2c1", "note": "[KUMATAKENIN]", "EC50": 300}
{"smiles": "COc1cc(O)c2c(=O)c(OC)c(-c3ccc(OC)c(OC)c3)oc2c1", "note": "[RETUSIN]", "EC50": 600}
{"system": "not listed separately", "assay": "Cytotoxicity against African green monkey Vero E6 cells assessed as reduction in cell viability by CCK8 assay", "assay_type": "toxicity, cell-based, Vero C1008", "details": "chlorocebus sabaeus", "units": {"CC50": "nM"}}
{"smiles": "O=c1cc(-c2ccccc2)oc2cc(O)c(O)c(O)c12", "note": "[BAICALEIN]", "CC50": "> 200000"}
{"system": "SARS-CoV-2", "assay": "Antiviral activity against SARS-CoV-2", "assay_type": "functional, organism-based", "details": "Severe acute respiratory syndrome coronavirus 2", "units": {"EC50": "nM"}}
{"smiles": "CC(C)C(=O)OC[C@H]1O[C@@H](n2cc/c(=N\\O)[nH]c2=O)[C@H](O)[C@@H]1O", "note": "[MOLNUPIRAVIR]", "EC50": 2000}
{"smiles": "CCC(CC)COC(=O)[C@H](C)N[P@](=O)(OC[C@H]1O[C@@](C#N)(c2ccc3c(N)ncnn23)[C@H](O)[C@@H]1O)Oc1ccccc1", "EC50": 2500}
{"system": "SARS-CoV-2", "assay": "Antiviral activity against SARS-CoV-2 in presence of lopinavir", "assay_type": "functional, organism-based", "details": "Severe acute respiratory syndrome coronavirus 2", "units": {"EC50": "nM"}}
{"smiles": "CC(C)c1nc(CN(C)C(=O)N[C@H](C(=O)N[C@@H](Cc2ccccc2)C[C@H](O)[C@H](Cc2ccccc2)NC(=O)OCc2cncs2)C(C)C)cs1", "note": "[RITONAVIR]", "EC50": 5000}
{"system": "SARS-CoV-2", "assay": "Antiviral activity against SARS-CoV-2 in presence of ritonavir", "assay_type": "functional, organism-based", "details": "Severe acute respiratory syndrome coronavirus 2", "units": {"EC50": "nM"}}
{"smiles": "Cc1cccc(C)c1OCC(=O)N[C@@H](Cc1ccccc1)[C@@H](O)C[C@H](Cc1ccccc1)NC(=O)[C@H](C(C)C)N1CCCNC1=O", "note": "[LOPINAVIR]", "EC50": 5000}
